According to patent US20070116825A1, “Confection with High-Potency Sweetener” (THE COCA-COLA COMPANY, priority 2005, published 2007):

What was measured:
[1] = Rate of dissolution in H2O at 25° C. of rebaudioside A polymorph and amorphous forms; type: physicochemical
Text: The purification of rebaudioside A by crystallization as described above results in the formation of at least three different polymorphs: Form 1: a rebaudioside A hydrate; Form 2: an anhydrous rebaudioside A; Form 3: a rebaudioside A solvate. In addition to the at least three polymorph forms of rebaudioside A, the purification of rebaudioside A may result in the formation of an amorphous form of rebaudioside A, Form 4. The aqueous organic solution and temperature of the purification process influence the resulting polymorph and amorphous forms in the substantially pure rebaudioside A composition. FIGS. 1-5 are exemplary powder x-ray diffraction (XRPD) scans of the polymorph and amorphous forms of rebaudioside A: Form 1 (hydrate), Form 2 (anhydrate), Form 3A (methanol solvate), Form 3B (ethanol solvate), and Form 4 (amorphous), respectively.

[2] = type: physicochemical
Method: A solution of rebaudioside A (>97% pure by HPLC) was prepared in double distilled water (12.5 gm in 50 mL, 25% concentration) by stirring the mixture at 40° C. for 5 minutes. An amorphous form of rebaudioside A was formed by immediately using the clear solution for spray drying with the Lab-Plant spray drier SD-04 instrument (Lab-Plant Ltd., West Yorkshire, U.K.). The solution was fed through the feed pump into the nozzle atomizer which atomized it into a spray of droplets with the help of a constant flow of nitrogen/air. […] This dry powder (11-12 g, H2O 6.74%) was discharged continuously from the drying chamber and was collected in a bottle.

Substance: rebaudioside A [Form 1]
- Rate of dissolution in H2O at 25° C. ([1]; per 60 minutes): Very low (<0.2%/ %/60 minutes

Substance: rebaudioside A [Form 2]
- Rate of dissolution in H2O at 25° C. ([1]; per 5 minutes): Intermediate (<30%/ %/5 minutes

Substance: rebaudioside A [Form 4]
- Rate of dissolution in H2O at 25° C. ([1]; per 5 minutes): High (>35%/5 %/5 minutes
- solubility in water at room temperature [2]: > 35.0%

Substance: rebaudioside A [Form 3]
- Rate of dissolution in H2O at 25° C. ([1]; per 5 minutes): High (>30%/5 %/5 minutes
